Source: article PMC7531004, “Discovery of gramicidin A analogues with altered activities by multidimensional screening of a one-bead-one-compound library” (Nature Communications, 2020)
Where a SMILES comes first, the peptide text is derived from it. [ ]: non-standard residue; d: D form. The star is where a group is joined. NHCH2CH2OH = OCCN*; For = O=C*

Tests used:
[1] = H+/Na+ transport assay of bead-derived peptides (one-point); assay type: biochemical; parameters: key: relative activity; mean of two control wells = 1.00; conditions: bead-derived peptide solution, EYPC/EYPG LUVs;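 further: relative to parent gramicidin A activity set to 1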
Outline: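 Miniaturized 96-well format. LUVs with entrapped pyranine (1.0 mM) were exposed to peptide for 30 min at RT. Intensities were expressed relative to full lysis by Triton X-100 and no treatment, with control-well mean = 1.00.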

[2] = system: P388 mouse leukemia cells; conditions: 92 h
Outline: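 P388 cells at 1 × 10^4 cells/mL (final) were exposed to library peptides (stocks diluted 250-fold in RPMI1640/10% FBS) for 92 h at 37 °C, 5% CO2. Viable cells were counted by WST-1/1-methoxy PMS (4 h), absorbance 415 nm, and expressed as cell viability (%).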

[3] = system: Streptococcus pyogenes SSI-9; experiment: Antibacterial activity assay of bead-derived peptides (three concentrations); assay type: cell-based; parameters: key: +++: inhibition by the 640-fold diluted peptide solution; ++: inhibition by the 160-fold diluted solution; +: inhibition by the 40-fold diluted solution; -: no inhibition; conditions: S. pyogenes, bead-derived peptide solution, three concentrations
Outline: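 Undiluted, 4-fold and 16-fold DMSO-diluted peptide stocks; S. pyogenes SSI-9, 2 × 10^5 CFU, cation-adjusted MHB (50 mg/L Ca2+, 25 mg/L Mg2+) + 5% laked horse blood; 37 °C, 18 h; readout = cell pellet visible or not.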

| Compound | H+/Na+ transport activity normalized against the value of 1 (1.00) [1] | cell viability/% [2] | antibacterial activity [3] |
| --- | --- | --- | --- |
| CNC(=O)C[C@@H](NC(=O)[C@H](Cc1c[nH]c2ccccc12)NC(=O)[C@H](NC(=O)[C@H](Cc1c[nH]c2ccccc12)NC(=O)[C@H](NC(=O)[C@H](Cc1c[nH]c2ccccc12)NC(=O)[C@@H](CC(C)C)NC(=O)[C@@H](NC(=O)[C@H](NC(=O)[C@H](C)NC(=O)[C@@H](CC(C)C)NC(=O)[C@H](C)NC(=O)CNC(=O)[C@@H](NC=O)C(C)C)C(C)C)C(C)C)C(C)C)C(C)C)C(=O)N[C@@H](Cc1c[nH]c2ccccc12)C(=O)NCCO [compound 4808] (For-VGA[dL]A[dV]V[dL]W[dV]W[dV]W[dD](NHMe)W-NHCH2CH2OH) | 1.02 | 100.0% | - |
| CC(C)C[C@@H](NC(=O)[C@H](C)NC(=O)[C@H](NC(=O)[C@H](C)NC(=O)CNC(=O)[C@@H](NC=O)C(C)C)[C@H](C)O)C(=O)N[C@H](C(=O)N[C@H](CC(C)C)C(=O)N[C@@H](Cc1c[nH]c2ccccc12)C(=O)N[C@H](CC(C)C)C(=O)N[C@@H](Cc1c[nH]c2ccccc12)C(=O)N[C@@H](C(=O)N[C@@H](Cc1c[nH]c2ccccc12)C(=O)N[C@H](CC(C)C)C(=O)N[C@@H](Cc1c[nH]c2ccccc12)C(=O)NCCO)C(C)C)C(C)C [compound 1516] (For-VGA[dT]A[dL]V[dL]W[dL]W[dV]W[dL]W-NHCH2CH2OH) | 1.06 | 100.0% | - |
| CNC(=O)C[C@@H](NC(=O)[C@H](Cc1c[nH]c2ccccc12)NC(=O)[C@@H](CC(C)C)NC(=O)[C@H](Cc1c[nH]c2ccccc12)NC(=O)[C@@H](CC(C)C)NC(=O)[C@H](Cc1c[nH]c2ccccc12)NC(=O)[C@H](NC(=O)[C@@H](NC(=O)[C@H](NC(=O)[C@H](C)NC(=O)[C@@H](CC(C)C)NC(=O)[C@H](C)NC(=O)CNC(=O)[C@@H](NC=O)C(C)C)C(C)C)C(C)C)C(C)C)C(=O)N[C@@H](Cc1c[nH]c2ccccc12)C(=O)NCCO [compound 11422] (For-VGA[dL]A[dV]V[dV]W[dL]W[dL]W[dD](NHMe)W-NHCH2CH2OH) | 1.04 | 47.4% | + |
| CC(C)C[C@@H](NC(=O)[C@H](C)NC(=O)CNC(=O)[C@@H](NC=O)C(C)C)C(=O)N[C@@H](C)C(=O)N[C@H](CC(C)C)C(=O)N[C@H](C(=O)N[C@H](CC(C)C)C(=O)N[C@@H](Cc1c[nH]c2ccccc12)C(=O)N[C@H](CC(C)C)C(=O)N[C@@H](Cc1c[nH]c2ccccc12)C(=O)N[C@@H](C(=O)N[C@@H](Cc1c[nH]c2ccccc12)C(=O)N[C@H](CC(C)C)C(=O)N[C@@H](Cc1c[nH]c2ccccc12)C(=O)NCCO)C(C)C)C(C)C [compound 9473] (For-VGA[dL]A[dL]V[dL]W[dL]W[dV]W[dL]W-NHCH2CH2OH) | 1.04 | 0.0% | - |
| CC(C)C[C@@H](NC(=O)[C@H](C)NC(=O)CNC(=O)[C@@H](NC=O)C(C)C)C(=O)N[C@@H](C)C(=O)N[C@@H](C(=O)N[C@H](C(=O)N[C@@H](C(=O)N[C@@H](Cc1c[nH]c2ccccc12)C(=O)N[C@H](CC(C)C)C(=O)N[C@@H](Cc1c[nH]c2ccccc12)C(=O)N[C@H](CC(C)C)C(=O)N[C@@H](Cc1c[nH]c2ccccc12)C(=O)N[C@H](CC(C)C)C(=O)N[C@@H](Cc1c[nH]c2ccccc12)C(=O)NCCO)C(C)C)C(C)C)C(C)C [compound 6292] (For-VGA[dL]A[dV]V[dV]W[dL]W[dL]W[dL]W-NHCH2CH2OH) | 1.25 | 5.4% | ++ |
| CNC(=O)C[C@@H](NC(=O)[C@H](Cc1c[nH]c2ccccc12)NC(=O)[C@@H](CC(C)C)NC(=O)[C@H](Cc1c[nH]c2ccccc12)NC(=O)[C@@H](CC(C)C)NC(=O)[C@H](Cc1c[nH]c2ccccc12)NC(=O)[C@H](NC(=O)[C@@H](NC(=O)[C@@H](CC(C)C)NC(=O)[C@H](C)NC(=O)[C@@H](CC(C)C)NC(=O)[C@H](C)NC(=O)CNC(=O)[C@@H](NC=O)C(C)C)C(C)C)C(C)C)C(=O)N[C@@H](Cc1c[nH]c2ccccc12)C(=O)NCCO [compound 6829] (For-VGA[dL]A[dL]V[dV]W[dL]W[dL]W[dD](NHMe)W-NHCH2CH2OH) | 1.05 | 100.0% | - |
| CC(C)C[C@@H](NC(=O)[C@H](Cc1c[nH]c2ccccc12)NC(=O)[C@@H](CC(C)C)NC(=O)[C@H](Cc1c[nH]c2ccccc12)NC(=O)[C@H](NC(=O)[C@H](Cc1c[nH]c2ccccc12)NC(=O)[C@@H](CC(C)C)NC(=O)[C@@H](NC(=O)[C@H](NC(=O)[C@H](C)NC(=O)[C@H](NC(=O)[C@H](C)NC(=O)CNC(=O)[C@@H](NC=O)C(C)C)C(C)C)C(C)C)C(C)C)C(C)C)C(=O)N[C@@H](Cc1c[nH]c2ccccc12)C(=O)NCCO [compound 10661] (For-VGA[dV]A[dV]V[dL]W[dV]W[dL]W[dL]W-NHCH2CH2OH) | 1.03 | 39.9% | + |
| CNC(=O)C[C@@H](NC(=O)[C@@H](NC(=O)[C@@H](CC(C)C)NC(=O)[C@H](C)NC(=O)[C@@H](CC(C)C)NC(=O)[C@H](C)NC(=O)CNC(=O)[C@@H](NC=O)C(C)C)C(C)C)C(=O)N[C@@H](Cc1c[nH]c2ccccc12)C(=O)N[C@H](CC(C)C)C(=O)N[C@@H](Cc1c[nH]c2ccccc12)C(=O)N[C@@H](C(=O)N[C@@H](Cc1c[nH]c2ccccc12)C(=O)N[C@H](CC(C)C)C(=O)N[C@@H](Cc1c[nH]c2ccccc12)C(=O)NCCO)C(C)C [compound 7400] (For-VGA[dL]A[dL]V[dD](NHMe)W[dL]W[dV]W[dL]W-NHCH2CH2OH) | 1.30 | 100.0% | - |
| CC(C)C[C@@H](NC(=O)[C@H](C)NC(=O)CNC(=O)[C@@H](NC=O)C(C)C)C(=O)N[C@@H](C)C(=O)N[C@H](CC(C)C)C(=O)N[C@H](C(=O)N[C@@H](C(=O)N[C@@H](Cc1c[nH]c2ccccc12)C(=O)N[C@H](CC(C)C)C(=O)N[C@@H](Cc1c[nH]c2ccccc12)C(=O)N[C@H](CC(C)C)C(=O)N[C@@H](Cc1c[nH]c2ccccc12)C(=O)N[C@@H](C(=O)N[C@@H](Cc1c[nH]c2ccccc12)C(=O)NCCO)C(C)C)[C@H](C)O)C(C)C [compound 4690] (For-VGA[dL]A[dL]V[dT]W[dL]W[dL]W[dV]W-NHCH2CH2OH) | 1.01 | 100.0% | + |
| CC(C)C[C@@H](NC(=O)[C@H](C)NC(=O)[C@H](NC(=O)[C@H](C)NC(=O)CNC(=O)[C@@H](NC=O)C(C)C)C(C)C)C(=O)N[C@H](C(=O)N[C@@H](C(=O)N[C@@H](Cc1c[nH]c2ccccc12)C(=O)N[C@@H](C(=O)N[C@@H](Cc1c[nH]c2ccccc12)C(=O)N[C@H](CC(C)C)C(=O)N[C@@H](Cc1c[nH]c2ccccc12)C(=O)N[C@H](CC(C)C)C(=O)N[C@@H](Cc1c[nH]c2ccccc12)C(=O)NCCO)C(C)C)[C@H](C)O)C(C)C [compound 11433] (For-VGA[dV]A[dL]V[dT]W[dV]W[dL]W[dL]W-NHCH2CH2OH) | 1.38 | 51.1% | - |
| CC(C)C[C@@H](NC(=O)[C@H](C)NC(=O)[C@H](NC(=O)[C@H](C)NC(=O)CNC(=O)[C@@H](NC=O)C(C)C)C(C)C)C(=O)N[C@H](C(=O)N[C@@H](C(=O)N[C@@H](Cc1c[nH]c2ccccc12)C(=O)N[C@@H](C(=O)N[C@@H](Cc1c[nH]c2ccccc12)C(=O)N[C@@H](C(=O)N[C@@H](Cc1c[nH]c2ccccc12)C(=O)N[C@@H](C(=O)N[C@@H](Cc1c[nH]c2ccccc12)C(=O)NCCO)C(C)C)C(C)C)C(C)C)C(C)C)C(C)C [compound 8909] (For-VGA[dV]A[dL]V[dV]W[dV]W[dV]W[dV]W-NHCH2CH2OH) | 1.04 | 85.9% | + |
| CNC(=O)C[C@@H](NC(=O)[C@@H](NC(=O)[C@@H](CC(C)C)NC(=O)[C@H](C)NC(=O)[C@@H](CC(C)C)NC(=O)[C@H](C)NC(=O)CNC(=O)[C@@H](NC=O)C(C)C)C(C)C)C(=O)N[C@@H](Cc1c[nH]c2ccccc12)C(=O)N[C@H](CC(C)C)C(=O)N[C@@H](Cc1c[nH]c2ccccc12)C(=O)N[C@H](CC(C)C)C(=O)N[C@@H](Cc1c[nH]c2ccccc12)C(=O)N[C@@H](C(=O)N[C@@H](Cc1c[nH]c2ccccc12)C(=O)NCCO)[C@H](C)O [compound 5746] (For-VGA[dL]A[dL]V[dD](NHMe)W[dL]W[dL]W[dT]W-NHCH2CH2OH) | 1.26 | 100.0% | - |
| CC(C)[C@H](NC=O)C(=O)NCC(=O)N[C@@H](C)C(=O)N[C@@H](C(=O)N[C@@H](C)C(=O)N[C@@H](C(=O)N[C@H](C(=O)N[C@@H](C(=O)N[C@@H](Cc1c[nH]c2ccccc12)C(=O)N[C@@H](C(=O)N[C@@H](Cc1c[nH]c2ccccc12)C(=O)N[C@@H](C(=O)N[C@@H](Cc1c[nH]c2ccccc12)C(=O)N[C@@H](C(=O)N[C@@H](Cc1c[nH]c2ccccc12)C(=O)NCCO)C(C)C)C(C)C)C(C)C)C(C)C)C(C)C)C(C)C)C(C)C [compound 10276] (For-VGA[dV]A[dV]V[dV]W[dV]W[dV]W[dV]W-NHCH2CH2OH) | 1.04 | 100.0% | + |
